Results on 17 molecules are retold here after publication PMC9960827, “Cloning and Characterization of Trypanosoma congolense and T. vivax Nucleoside Transporters Reveal the Potential of P1-Type Carriers for the Discovery of Broad-Spectrum Nucleoside-Based Therapeutics against Animal African Trypanosomiasis” (International Journal of Molecular Sciences, 2023).

Where “and” joins values, the source holds several entries; their conditions need not be identical. Equal values may be shown once. Read-outs that look alike come from different tables or passages of the source.

In one assay the target is TcoAT1. It is filed as cell-based, Trypanosoma congolense. The note with it: for Ki: 0.05 µM [3H]-adenosine, 10 s, IC50 converted to Ki, read-out: Ki on the transport of [3H]-adenosine; for ΔG0: Gibbs free energy of binding, from Km or Ki; for δ(ΔG0): loss of Gibbs free energy of binding relative to the parent nucleoside. An excerpt:
(§1) The information for the T. congolense adenosine transporter (TcoAT1) and four putative T. vivax nucleoside transporters was obtained in the TritrypDB (tritrypdb.org/tritrypdb) genome database. Primers were designed to flank each gene upstream of the 5′ end (forward) and downstream of the 3′ end (reverse) as described (primer sequences in Supplementary Table S2). Following amplification from the genomic DNA of T. congolense or T. vivax, DNA for each extracted gene was ligated into the pNUS-HcN expression vector doubly digested with NdeI using the NEBuilder kit according to the manufacturer’s instructions (New England Biolabs). Construct was transformed into competent E. coli cells, and ligation was confirmed by restriction enzyme digestion of isolated plasmid DNA followed by Sanger sequencing (Source BioScience, Nottingham, UK). Confirmed plasmids were then transfected into L. mexicana cell line in which both NT1 and NT2 were doubly knocked out (SUPKO) and derived from L. mexicana Cas9 [64] as described. Clones grown in medium containing 50 μg/mL neomycin (G418) were collected for further confirmation by PCR with genomic DNA using a forward primer of the transporter gene and a reverse primer of the plasmid.
(§2) Uptake assays using radiolabeled trypanocides and/or nucleosides were carried out as described previously. Briefly, parasite cultures were harvested, washed twice in assay buffer (33 mM HEPES, 98 mM NaCl, 4.6 mM KCl, 0.5 mM CaCl2, 0.07 mM MgSO4, 5.8 mM NaH3PO4, 0.03 mM MgCl2, 23 mM NaHCO3, 14 mM D-glucose, pH 7.3), then resuspended and adjusted to a density of 1 × 10^8 cells/mL in assay buffer. The radiolabeled permeant in the presence or absence of different concentrations of potential inhibitors reconstituted in 100 μL assay buffer was deposited on top of 250 μL oil mix in microcentrifuge tubes; 1 × 10^7 parasites in 100 μL assay buffer were added to the tube and incubated for a pre-determined interval. The reaction was stopped by the addition of 1 mL of a high concentration of ice-cold unlabeled substrate in assay buffer (‘stop solution’) and centrifugation, or by immediate centrifugation at […] as appropriate. The microcentrifuge tubes were flash-frozen, and the bottom of each tube containing the cell pellet was cut off and transferred to a scintillation vial. Cell pellets were lysed in 2% SDS, after which scintillation fluid (Scintlogic U, Lablogic) was added, followed by overnight incubation in the dark. Scintillation was measured in a 300SL (Hidex) scintillation counter (Hidex). All the assays were conducted in triplicate and analysis was carried out using Microsoft Excel and GraphPad Prism. All kinetic parameters were obtained on at least 3 separate occasions.
(§3) The dose-dependent uptake assay allowed for the affinity of nucleoside analogs to different nucleoside transporters to be determined by measuring the extent to which the analogs compete with and inhibit the uptake of radiolabel adenosine. This allowed for the determination of biochemical parameters such as Km and Vmax through the application of the Michaelis–Menten equation V0 = Vmax([substrate]/([substrate] + Km)). The 50% Inhibitory Concentration (IC50) of the purines and pyrimidines and their analogs was determined from non-linear regression to sigmoid curves with variable slope (Prism 8), and the IC50 of the inhibitor and the Km of the labeled permeant were then used to calculate the inhibition constant (Ki) of the analogs through the Cheng–Prusoff equation: Ki = IC50/(1 + (L/Km)), where L denotes the radiolabel concentration. The calculated Ki was in turn used to determine the Gibbs free energy (ΔG^0) of the inhibitor–transporter interaction using the equation: ΔG^0 = -RTln(Ki), where R represents the gas constant and T symbolizes the absolute temperature in Kelvin [104].

The next assay has as its target TvxNT3 (Trypanosoma vivax, UniProt F9WV62). The assay is described as follows: cell-based. It is filed as cell-based. The note with it: for ΔG0: Gibbs free energy of interaction, from Km or Ki; for δ(ΔG0): difference in ΔG0 relative to the parent purine (adenosine or inosine); for remaining activity at 100 µM: read-out: [3H]-adenosine uptake remaining in presence of inhibitor.
From the text: as §1, §2, §3

A further assay has as its system L. mexicana Cas9. The experiment in a line: Resazurin drug sensitivity assay, LmexCas9. It is filed as cell-based, Leishmania mexicana. The settings on record: read-out: LmexCas9 EC50. The procedure: (§4) EC50 values were determined by plotting to an equation for a sigmoid curve with variable slope (GraphPad Prism 8). All values were the average of at least three independent determinations on different days.

For the next assay, the system named is L. mexicana SUPKO+TcoAT1. The experiment in a line: microbe, parasite or virus in culture. It is filed as cell-based, Leishmania mexicana. The settings on record: for EC50: read-out: SUPKO+TcoAT1 EC50. On the procedure:
as §4

The test system of a further assay is L. mexicana SUPKO+TvxNT3. The experiment in a line: microbe, parasite or virus in culture. It counts as cell-based, Leishmania mexicana. The note with it: for EC50: read-out: SUPKO+TvxNT3 EC50. On the procedure:
as §4

Another assay has as its system L. mexicana SUPKO. The assay is described as follows: microbe, parasite or virus in culture. It counts as cell-based, Leishmania mexicana. On the procedure: as §4
Assay [1] deals with T. congolense adenosine transporter. The assay is described as follows: [3H]-adenosine uptake and its inhibition in T. congolense IL3000 bloodstream forms. The settings on record: for Ki: 0.05 µM [3H]-adenosine, 30 s, IC50 converted to Ki, read-out: Ki on the transport of [3H]-adenosine; for ΔG0, Gibbs free energy of interaction: calculated from Km or Ki. It counts as cell-based, Trypanosoma congolense. The procedure:
as §2, §3

Assay [2] concerns the target T. b. brucei P1 (TbP1/NT2). The settings on record: cited from earlier work; for Ki: T. b. brucei bloodstream forms, read-out: Tbb P1 Ki.
[3] abbreviates: Resistance Factor relative to SUPKO.
[4] abbreviates: resazurin, promastigotes, read-out: SUPKO EC50.

Broadly, the Ki is the equilibrium dissociation constant of an inhibitor or competing ligand from its target. One may read the EC50 as the midpoint of the concentration-response curve.

TvxNT3, sequence (F9WV62 entry or part of it): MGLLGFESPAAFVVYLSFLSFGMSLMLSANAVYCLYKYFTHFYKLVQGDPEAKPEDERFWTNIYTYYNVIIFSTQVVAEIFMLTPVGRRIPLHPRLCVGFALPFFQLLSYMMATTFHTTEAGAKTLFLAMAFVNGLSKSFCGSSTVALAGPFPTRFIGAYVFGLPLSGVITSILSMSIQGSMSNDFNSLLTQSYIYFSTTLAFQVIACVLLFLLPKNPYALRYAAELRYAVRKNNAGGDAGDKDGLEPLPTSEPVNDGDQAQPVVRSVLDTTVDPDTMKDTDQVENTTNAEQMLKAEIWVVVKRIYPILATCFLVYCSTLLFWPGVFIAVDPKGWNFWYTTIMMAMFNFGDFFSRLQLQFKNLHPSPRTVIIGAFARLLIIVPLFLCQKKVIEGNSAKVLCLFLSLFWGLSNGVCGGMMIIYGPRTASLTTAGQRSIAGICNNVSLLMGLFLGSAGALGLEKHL

Turning to `Nc1ccnc2c1ncn2[C@@H]1O[C@H](CO)[C@@H](O)[C@H]1O` [1-deazaadenosine], at TcoAT1, the Ki was 1.03 ± 0.34 µM, the ΔG0 is -34.2 kJ/mol and the “δ(ΔG0)” value was 2.24 kJ/mol.
For `Nc1ncnc2c1ncn2[C@H]1CC[C@@H](CO)O1` [2′,3′-dideoxyadenosine], in that order: 51.9 ± 2.6 µM, -24.4 kJ/mol and 11.95 kJ/mol.
With `OC[C@@H]1CC[C@H](n2cnc3c(O)ncnc32)O1` [2′,3′-dideoxyinosine], on TcoAT1, the Ki worked out at 85.4 ± 7.1 µM, the ΔG0 was -23.2 kJ/mol and the “δ(ΔG0)” value came out at 12.51 kJ/mol.
`Nc1ncnc2c1ncn2[C@H]1C[C@H](O)[C@@H](CO)O1` [2′-deoxyadenosine]: on TcoAT1, the Ki was found to be 0.5 ± 0.07 µM, the ΔG0 was -36.0 kJ/mol and the “δ(ΔG0)” value was 0.44 kJ/mol. For the same molecule, on TvxNT3, the ΔG0 was -34.1 kJ/mol and the “δ(ΔG0)” value turned out to be 0.70 kJ/mol.
`Nc1nccc2c1ncn2[C@@H]1O[C@H](CO)[C@@H](O)[C@H]1O` [3-deazaadenosine]: on TcoAT1, the Ki stood at 138 ± 37 µM; the ΔG0 is -22.0 kJ/mol; the “δ(ΔG0)” value was 14.4 kJ/mol and 14.37 kJ/mol.
`OC[C@H]1O[C@@H](n2cnc3c(O)nccc32)[C@H](O)[C@@H]1O` [3-deazainosine] gave a ΔG0 on TvxNT3 of -25.6 kJ/mol.
With `C[C@H]1O[C@@H](n2cnc3c(N)ncnc32)[C@H](O)[C@@H]1O` [5′-deoxyadenosine], on TcoAT1, the Ki was found to be 0.45 ± 0.08 µM, the ΔG0 was -36.2 kJ/mol and the “δ(ΔG0)” value was 0.18 kJ/mol. At TvxNT3, the ΔG0 was -34.0 kJ/mol and the “δ(ΔG0)” value came to 0.63 kJ/mol.
With `OC[C@H]1O[C@@H](n2cnc3c(S)ncnc32)[C@H](O)[C@@H]1O` [6-thioinosine], on TvxNT3, the ΔG0 is -30.8 kJ/mol.
Consider `Nc1ncnc2[nH]cnc12` [Adenine], for which, at TcoAT1 (listed as ADE), the Ki is 786 µM. At TcoAT1, the inhibition constant (Ki) stood at 761 ± 103 µM, the ΔG0 is -17.8 kJ/mol and the “δ(ΔG0)” value amounted to 18.60 kJ/mol. At TvxNT3, the ΔG0 was -32.04 kJ/mol, the “δ(ΔG0)” value was -1.34 kJ/mol and the remaining activity at 100 µM was less than 25%. Besides, the “δ(ΔG0)” value at TvxNT3 (listed as adenine) worked out at 1.34 kJ/mol.
Regarding `COc1ncnc2c1ccn2[C@@H]1O[C@H](CO)[C@@H](O)[C@H]1O` [CL4510, 6-methoxy-7-deazapurine riboside], the Ki on TcoAT1 is 226 ± 26 µM; on TvxNT3 (50 nM [3H]-adenosine, 90 s, IC50 converted to Ki, read-out: Ki on the transport of [3H]-adenosine) it was 16.1 ± 2.8 µM. The ΔG0 is -20.8 kJ/mol in the assay on TcoAT1 and -27.4 kJ/mol at TvxNT3. The EC50 with L. mexicana Cas9 (resazurin, promastigotes) is 0.39 ± 0.05 µM; in the assay on L. mexicana SUPKO+TcoAT1 (resazurin, promastigotes), 2.2 ± 0.03 µM; in the assay on L. mexicana SUPKO+TvxNT3 (resazurin, promastigotes) it was 2.05 ± 0.04 µM; in the assay on L. mexicana SUPKO (setting [4]), 2300 nM and 2280 nM. The “SUPKO+TcoAT1 RF (SUPKO)” value in the assay with L. mexicana SUPKO+TcoAT1 (setting [3]) worked out at 1.03. Also, the “SUPKO+TvxNT3 RF (SUPKO)” value in the assay with L. mexicana SUPKO+TvxNT3 (setting [3]) was 1.1. Besides, the “SUPKO RF (Cas9)” value in the assay on L. mexicana SUPKO (Resistance Factor = EC50(SUPKO)/EC50(Cas9)) was 5.84.
Regarding `Nc1ccn([C@@H]2O[C@H](CO)[C@@H](O)[C@H]2O)c(=O)n1` [Cytidine], in assay [1], the Ki is 1180 ± 148 µM and the “ΔG0, Gibbs free energy of interaction” value is -16.7 kJ/mol. For the same molecule, the “Ki values fold higher than those for the purines” value in assay [1] (inhibition of adenosine uptake) is recorded as more than 90 fold. Moreover, on TcoAT1, the Ki turned out to be 1580 ± 69.2 µM, the ΔG0 was -16.0 kJ/mol and the “δ(ΔG0)” value is on record as 20.41 kJ/mol. For the same molecule, in assay [2], the Ki is more than 250000 nM.
Consider `Nc1nc2c(ncn2[C@@H]2O[C@H](CO)[C@@H](O)[C@H]2O)c(=O)[nH]1` [Guanosine], for which, in assay [1], the Ki worked out at 1.06 ± 0.07 µM and the “ΔG0, Gibbs free energy of interaction” value was -34.1 kJ/mol. Moreover, on TcoAT1, the Ki worked out at 0.8 ± 0.09 µM, the ΔG0 is -34.8 kJ/mol and the “δ(ΔG0)” value is reported as 1.62 kJ/mol. For the same molecule, the remaining activity at 100 µM on TvxNT3 (100 µM inhibitor, 50 nM [3H]-adenosine) is less than 25%. In addition, on TvxNT3, the ΔG0 is -33.45 kJ/mol and the “δ(ΔG0)” value was 0.07 kJ/mol. In assay [2], the Ki is 1800 ± 300 nM and the “Tbb P1 ΔG0” value was -32.7 kJ/mol.
Consider `O=c1[nH]cnc2nc[nH]c12` [Hypoxanthine], for which, at TcoAT1, the Ki was found to be 61.2 ± 3.26 µM, the ΔG0 was -24.0 kJ/mol and the “δ(ΔG0)” value turned out to be 11.68 kJ/mol. In addition, at TvxNT3, the ΔG0 is -32.85 kJ/mol, the “δ(ΔG0)” value was -7.45 kJ/mol and the remaining activity at 100 µM is less than 25%. The “δ(ΔG0)” value at TvxNT3 (listed as hypoxanthine) is 5.61 kJ/mol.
On to `OC[C@H]1O[C@@H](n2cnc3cncnc32)[C@H](O)[C@@H]1O` [Nebularine], for which, on TvxNT3, the ΔG0 is -30.4 kJ/mol and the “δ(ΔG0)” value is -2.94 kJ/mol. The “δ(ΔG0)” value at TvxNT3 (listed as nebularine) is 2.9 kJ/mol.
On to `Nc1ncnc2c1c(-c1ccccc1)cn2C1OC(CO)C(O)C1O` (centres unmarked) [TH1012, 7-phenyltubercidin], for which, at TcoAT1, the Ki is 146 ± 58 µM and the ΔG0 was -21.9 kJ/mol.
Take `NCCS[As](SCCN)c1ccc(Nc2nc(N)nc(N)n2)cc1` [melarsomine, reference compound]: the EC50 with L. mexicana Cas9 (resazurin, promastigotes) is more than 100 µM; in the assay on L. mexicana SUPKO+TcoAT1 (resazurin, promastigotes), more than 100 µM; in the assay on L. mexicana SUPKO+TvxNT3 (resazurin, promastigotes), more than 100 µM; in the assay with L. mexicana SUPKO (setting [4]), more than 100000 nM.
On to `Cc1ccc(C(=O)Nc2ccc(S(=O)(=O)O)c3cc(S(=O)(=O)O)cc(S(=O)(=O)O)c23)cc1NC(=O)c1cccc(NC(=O)Nc2cccc(C(=O)Nc3cc(C(=O)Nc4ccc(S(=O)(=O)O)c5cc(S(=O)(=O)O)cc(S(=O)(=O)O)c45)ccc3C)c2)c1` [suramin, reference compound], for which the EC50 was more than 100 µM in the assay with L. mexicana Cas9 (Leishmania mexicana); more than 100 µM with L. mexicana SUPKO+TcoAT1 (Leishmania mexicana); more than 100 µM with L. mexicana SUPKO+TvxNT3 (Leishmania mexicana); more than 100000 nM with L. mexicana SUPKO (Leishmania mexicana, read-out: SUPKO EC50, resazurin, promastigotes).
